Where two headings read alike, the source gives them in different places.
Experiments:
K-562 = assay: 3H-Thymidine uptake cell proliferation assay, K-562; format: cell-based; details: Homo sapiens, K562, 72 h incubation, read-out: Antiproliferative activity IC50, K-562
Protocol: (§1) ^3H-Thymidine uptake assay: ^3H-Thymidine-incorporation is directly proportional to the number of dividing cells in culture.
(§2) Exponentially growing cultures were subjected to different concentrations of test compounds and standard as given below.
(§3) Cells were seeded at a density of 3×10^3 to 5×10^3 per well (in 0.180 mL) in transparent 96 well tissue culture plate (NUNC, USA) and were allowed to incubate at 37° C. in 5% carbon dioxide incubator for 2-6 h. Test compounds were diluted in medium (RPMI1640 with 10% FBS) at various concentrations, and 0.02 mL of 10× stocks were added to each well in triplicate. Plates were incubated at 37° C. in 5% carbon dioxide incubator for 72 h, with an intermittent microscopic observation every 24 h.
(§4) After 72 h incubation, the plate was centrifuged at 1000 rpm for 10 mins in a plate centrifuge. Supernatant was carefully aspirated and ^3H-Thymidine was added to all wells at a concentration of 0.5 μCi/well in 0.1 mL complete medium. Plates were further incubated at 37° C. in 5% carbon dioxide incubator for 6-14 h.
(§5) The filter plate was dried completely at 60° C. for 1 h, or overnight (16 h) at room temperature (25° C.). […] The plate was sealed from the top, read on scintillation counter (TopCount, Packard), and percent inhibition and IC50 in comparison with control values was calculated.

K-562-R = assay: 3H-Thymidine uptake cell proliferation assay, K-562-R; format: cell-based; details: Homo sapiens, 72 h incubation, K-562-R (GLEEVEC resistant), read-out: Antiproliferative activity IC50, K-562-R
Protocol: as §1, §2, §3, §4, §5

32Dcl^Bcr-Abl T315I = target: T1, 32Dcl^Bcr-Abl T315I (Homo sapiens, UniProt P00519, T315I, cells depend on it); assay: 3H-Thymidine uptake cell proliferation assay, 32Dcl Bcr-Abl T315I; format: cell-based, Mouse; details: 72 h incubation, read-out: Antiproliferative activity IC50, 32Dcl^Bcr-Abl T315I
T1 construct: Mouse fibroblast with T315I mutated Bcr-Abl; fused on or other part: P11274 (Breakpoint cluster region protein)
Protocol: as §1, §2, §3, §4, §5

K562 = assay: CCK-8 cell proliferation and cytotoxicity assay, K562; format: cell-based, Human; details: Homo sapiens, K562, 72 h; read-out: Inhibitory concentration (IC50), K562
Ba/F3 Bcr-Abl/WT = target: T2, Ba/F3 Bcr-Abl/WT (Homo sapiens, UniProt P00519); assay: CCK-8 assay, Ba/F3 Bcr-Abl/WT; format: cell-based; details: CCK-8, 72 h, imatinib mesylate sensitive; read-out: Inhibitory concentration (IC50), Ba/F3 Bcr-Abl/WT
T2 construct: fused on or other part: P11274 (Breakpoint cluster region protein)
Description: (§6) The cell lines described in Table 3 were used to test the antiproliferative activity of test compounds.
(§7) Cell Counting Kit-8 (CCK-8) allows very convenient assay by utilizing Dojindo's highly water-soluble tetrazolium salt. CCK-8, being nonradioactive, allows sensitive colorimetric assay for the determination of number of viable cells in cell proliferation and cytotoxicity assays. The amount of the formazan dye generated by dehydrogenases in cells is directly proportional to the number of living cells. Thus, the CCK-8 assay can also be substituted for the H^3-Thymidine incorporation assay.
(§8) Plates were further incubated at 37° C., 5% CO2 incubator for 72 h. 10 μl of the CCK-8 solution was added to each well and plate was incubated for 1-4 h in the incubator. Measured the absorbance at 450 nm using a microplate reader.
(§9) A. The percent inhibition and IC50 were calculated in comparison with control values.

Ba/F3 Bcr-Abl/T315I = Ba/F3 Bcr-Abl/T315I (Homo sapiens, UniProt P00519, T315I, cells depend on it)
Description: as §6, §7, §8, §9

Ba/F3 Bcr-Abl/E255K = target: T3, Ba/F3 Bcr-Abl/E255K (Homo sapiens, UniProt P00519, E255K, cells depend on it); assay: CCK-8 assay, Ba/F3 Bcr-Abl/E255K; format: cell-based; details: mouse, 72 h
T3 construct: fused on or other part: P11274 (Breakpoint cluster region protein)

Ba/F3 Bcr-Abl/E255V = target: T4, Ba/F3 Bcr-Abl/E255V (Homo sapiens, UniProt P00519, E255V, cells depend on it); assay: CCK-8 assay, Ba/F3 Bcr-Abl/E255V; format: cell-based; details: mouse, 72 h
T4 construct: fused on or other part: P11274 (Breakpoint cluster region protein)

Ba/F3 Bcr-Abl/F317L = target: T5, Ba/F3 Bcr-Abl/F317L (Homo sapiens, UniProt P00519, F317L, cells depend on it); assay: CCK-8 assay, Ba/F3 Bcr-Abl/F317L; format: cell-based; details: mouse, 72 h
T5 construct: fused on or other part: P11274 (Breakpoint cluster region protein)

Ba/F3 Bcr-Abl/F359V = target: T6, Ba/F3 Bcr-Abl/F359V (Homo sapiens, UniProt P00519, F359V, cells depend on it); assay: CCK-8 assay, Ba/F3 Bcr-Abl/F359V; format: cell-based; details: mouse, 72 h
T6 construct: fused on or other part: P11274 (Breakpoint cluster region protein)

Ba/F3 Bcr-Abl/H396P = target: T7, Ba/F3 Bcr-Abl/H396P (Homo sapiens, UniProt P00519, H396P, cells depend on it); assay: CCK-8 assay, Ba/F3 Bcr-Abl/H396P; format: cell-based; details: mouse, 72 h
T7 construct: fused on or other part: P11274 (Breakpoint cluster region protein)

Ba/F3 Bcr-Abl/H396R = target: T8, Ba/F3 Bcr-Abl/H396R (Homo sapiens, UniProt P00519, H396R, cells depend on it); assay: CCK-8 assay, Ba/F3 Bcr-Abl/H396R; format: cell-based; details: mouse, 72 h
T8 construct: fused on or other part: P11274 (Breakpoint cluster region protein)

Ba/F3 Bcr-Abl/M244V = target: T9, Ba/F3 Bcr-Abl/M244V (Homo sapiens, UniProt P00519, M244V, cells depend on it); assay: CCK-8 assay, Ba/F3 Bcr-Abl/M244V; format: cell-based; details: mouse, 72 h
T9 construct: fused on or other part: P11274 (Breakpoint cluster region protein)

Ba/F3 Bcr-Abl/M351T = target: T10, Ba/F3 Bcr-Abl/M351T (Homo sapiens, UniProt P00519, M351T, cells depend on it); assay: CCK-8 assay, Ba/F3 Bcr-Abl/M351T; format: cell-based; details: mouse, 72 h
T10 construct: fused on or other part: P11274 (Breakpoint cluster region protein)

Ba/F3 Bcr-Abl/Q252H = target: T11, Ba/F3 Bcr-Abl/Q252H (Homo sapiens, UniProt P00519, Q252H, cells depend on it); assay: CCK-8 assay, Ba/F3 Bcr-Abl/Q252H; format: cell-based; details: mouse, 72 h
T11 construct: fused on or other part: P11274 (Breakpoint cluster region protein)

Ba/F3 Bcr-Abl/Y253F = target: T12, Ba/F3 Bcr-Abl/Y253F (Homo sapiens, UniProt P00519, Y253F, cells depend on it); assay: CCK-8 assay, Ba/F3 Bcr-Abl/Y253F; format: cell-based; details: mouse, 72 h
T12 construct: fused on or other part: P11274 (Breakpoint cluster region protein)

Ba/F3 Bcr-Abl/Y253H = target: T13, Ba/F3 Bcr-Abl/Y253H (Homo sapiens, UniProt P00519, Y253H, cells depend on it); assay: CCK-8 assay, Ba/F3 Bcr-Abl/Y253H; format: cell-based; details: mouse, 72 h
T13 construct: fused on or other part: P11274 (Breakpoint cluster region protein)

[1] = target: T14, p210^bcr-abl tyrosine kinase (Homo sapiens, UniProt P00519); assay: Bcr-abl kinase assay: autophosphorylation after immunoprecipitation from treated K-562 cells; format: cell-based; details: K-562 cells treated at IC50 and 3×IC50 for 24 h
T14 construct: immunoprecipitation of p210^bcr-abl tyrosine kinase from K-562 cell lysate; BCR (natural N-terminal fusion partner of the p210 BCR-ABL oncoprotein); endogenous in cells; host or cells: K-562 (human leukemic cell line); the other entry of the earlier key: BCR (P11274, Breakpoint cluster region protein)
Protocol: To study inhibition of autophosphorylation of Bcr-abl. Study was carried out by immunoprecipitation of p210^bcr-abl tyrosine kinase from K-562 cell lysate, followed by kinase enzyme assay. The reaction mixture was subjected to SDS-PAGE followed by autoradiography.
To check for the inhibition of autophosphorylation of p210^bcr-abl tyrosine kinase by compounds of the present invention, K-562 cells which express wild type Bcr-abl were used. […] Cells were washed with PBS solution and lysed using lysis buffer (CelLytic M Cell Lysis reagent, Sigma Aldrich, USA) for 2-3 h in cold conditions. Protein was estimated by Bradford method (Bradford reagent, Sigma Aldrich, USA). For immunoprecipitation equal amount of protein is taken from all samples. A p210^bcr-abl protein was immunoprecipitated using polyclonal anti-c-abl antibody (Santa Cruz Biotechnologies, USA) followed by incubation at 4° C. overnight with Protein A-Sepharose. […]
Kinase reaction was performed using 0.5 μCi (γ^32P)-adenosine triphosphate per reaction and incubated for 30 minutes at room temperature (25° C.). […] Autophosphorylation reaction products are resolved on SDS-PAGE and detected by autoradiography.

COC(=O)C=Cc1ccc(O)c(O)c1 [Compound 2, 3-(3,4-Dihydroxy-phenyl)-acrylic acid methyl ester]
IC50 (K-562): 13.6 ± 2.3 µM | IC50 (K-562-R): 23 µM | GI50 (32Dcl^Bcr-Abl T315I): 35 µM | IC50 (K562): 13.3 ± 2.1 µM | GI50 (Ba/F3 Bcr-Abl/WT): 7.9 ± 2.1 µM | GI50 (Ba/F3 Bcr-Abl/T315I; mouse, ba/f3 bcr-abl/t315i, 72 h): 6.3 µM | GI50 (Ba/F3 Bcr-Abl/T315I; read-out: Inhibitory concentration (IC50), Ba/F3 Bcr-Abl/T315I, CCK-8, 72 h, imatinib mesylate resistant, Table 4): 3.8 ± 1.9 µM | GI50 (Ba/F3 Bcr-Abl/E255K): 15 µM | GI50 (Ba/F3 Bcr-Abl/E255V): 18.9 µM | GI50 (Ba/F3 Bcr-Abl/F317L): 23.5 µM | GI50 (Ba/F3 Bcr-Abl/F359V): 18.4 µM | GI50 (Ba/F3 Bcr-Abl/H396P): 26.2 µM | GI50 (Ba/F3 Bcr-Abl/H396R): 18.8 µM | GI50 (Ba/F3 Bcr-Abl/M244V): 30.1 µM | GI50 (Ba/F3 Bcr-Abl/M351T): 16.1 µM | GI50 (Ba/F3 Bcr-Abl/Q252H): 15.4 µM | GI50 (Ba/F3 Bcr-Abl/Y253F): 17 µM | GI50 (Ba/F3 Bcr-Abl/Y253H): 14.5 µM | Inhibition of autophosphorylation of Bcr-abl (band density, autoradiography) [1]: potent Bcr-abl tyrosine kinase inhibitor
